Measured values reported in patent US20260103471A1, “CYCLIC UREA THIAZOLYL COMPOUNDS FOR TREATMENT OF HSV” (Assembly Biosciences, Inc., priority 2022, published 2026).
Read-outs that look alike come from different tables or passages of the source.

How the values were obtained:
[1] = tested on: HSV-1; assay: HSV-1 Antiviral Assay (Vero cells, cell viability); type: cell-based; details: for EC50: Human alphaherpesvirus 1, 96 h, Vero cells, read-out: HSV-1 EC50
How it was run: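 Vero cells (2.5×10^3/well) received 8-point 3-fold compound dilutions in 2% FBS medium (0.5% DMSO), then 80 TCID50 HSV-1. After 4 days at 37 °C, cell viability was measured by CellTiter-Glo luminescence.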

[2] = tested on: HSV-2 G strain; assay: HSV-2 Antiviral Assay (Vero cells, cell viability); type: cell-based; details: for EC50: Human alphaherpesvirus 2, Vero, 120 h, Vero cells, 5 days
How it was run: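 Vero cells (1.0×10^4/well, attached overnight) given 8-point 3-fold compound dilutions (0.5% DMSO) then infected with 160 TCID50 HSV-2 G strain in 2% FBS medium for 5 days at 37 °C. Protection read as cell viability by WST-8 absorbance at 460 and 620 nm after 3 h.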

[3] = tested on: HSV; details: long-term suppressive treatment; cited from earlier work
[4] = 80 TCID50 HSV-1, 4 days, cell viability
[5] = 160 TCID50 HSV-2 G strain, cell viability
[6] = ratio of EC50 vs Example 87 in WO2001047904

| SMILES | EC50 [1, 4] | EC50 [2, 5] | other results |
| --- | --- | --- | --- |
| Cc1nc(N2CCCN(c3ccc(-c4cc(F)cc(-c5cnn(C(F)F)c5)c4F)cc3)C2=O)sc1S(N)(=O)=O [Compound 228, 2-(3-(3′-(1-(difluoromethyl)-1H-pyrazol-4-yl)-2′,5′-difluoro-[1,1′-biphenyl]-4-yl)-2-oxotetrahydropyrimidin-1(2H)-yl)-4-methylthiazole-5-sulfonamide] | < 100 nM | < 100 nM | – |
| Cc1nc(N2CCCN(c3ccc(-c4cc(F)cc(F)n4)cc3)C2=O)sc1S(N)(=O)=O [Compound 235, 2-(3-(4-(4,6-difluoropyridin-2-yl)phenyl)-2-oxotetrahydropyrimidin-1(2H)-yl)-4-methylthiazole-5-sulfonamide] | < 100 nM | < 100 nM | – |
| Cc1nc(N2CCCN(c3ccc(-c4cc(F)cc5nnsc45)cc3)C2=O)sc1S(N)(=O)=O [Compound 243] | < 100 nM | < 100 nM | – |
| Cc1nc(N2CCCN(c3ccc(-c4cc(F)cc5nonc45)cc3)C2=O)sc1S(N)(=O)=O [Compound 245] | < 100 nM | < 100 nM | – |
| Cc1nc(N2CCCN(c3ccc(-c4cc(F)cc5c4ccn5C)cc3)C2=O)sc1S(N)(=O)=O [Compound 251] | < 100 nM | < 100 nM | – |
| Cc1nc(N2CCCN(c3ccc(-c4cc(F)cc5ncsc45)cc3)C2=O)sc1S(N)(=O)=O [Compound 255] | < 100 nM | < 100 nM | – |
| Cc1nc(N2CCCN(c3ccc(-c4cc(F)cc5nsnc45)cc3)C2=O)sc1S(N)(=O)=O [Compound 259] | < 100 nM | < 100 nM | – |
| Cc1nc(N2CCCN(c3ccc(-c4cccc5cc(C#N)sc45)cc3)C2=O)sc1S(N)(=O)=O [Compound 274] | < 100 nM | < 100 nM | – |
| Cc1nc(N2CCCN(c3ccc(-c4cc(Cl)cc5ncsc45)cc3)C2=O)sc1S(N)(=O)=O [Compound 277] | < 100 nM | < 100 nM | – |
| Cc1nc(N2CCCN(c3ccc(-c4cc(F)cc5c4cc(C#N)n5C)cc3)C2=O)sc1S(N)(=O)=O [Compound 293] | < 100 nM | < 100 nM | – |
| Cc1nc(N2CCCN(c3ccc(-c4snc5ccccc45)cc3)C2=O)sc1S(N)(=O)=O [Compound 305] | < 100 nM | < 100 nM | – |
| Cc1nc(N2CCCN(c3ccc(-c4nsc5ccccc45)cc3)C2=O)sc1S(N)(=O)=O [Compound 310] | < 100 nM | < 100 nM | – |
| Cc1nc(N2C[C@H](C)CN(c3ccc(-c4ccccc4F)cc3)C2=O)sc1S(N)(=O)=O [Compound 316] | < 100 nM | < 100 nM | – |
| Cc1nc(N2CC(C)CN(c3ccc(-c4cc(F)ccc4F)cc3)C2=O)sc1S(N)(=O)=O (stereo not shown) [Compound 318] | < 100 nM | < 100 nM | – |
| CC(=O)N1CC2(C1)CN(c1ccc(-c3cc(F)ccc3F)cc1)C(=O)N(c1nc(C)c(S(N)(=O)=O)s1)C2 [Compound 338] | 100 to 1000 nM | 100 to 1000 nM | – |
| Cc1nc(N2CC3(COC3)CN(c3ccc(-c4cc(F)ccc4F)cc3)C2=O)sc1S(N)(=O)=O [Compound 339, 2-(8-(2′,5′-difluoro-[1,1′-biphenyl]-4-yl)-7-oxo-2-oxa-6,8-diazaspiro[3.5]nonan-6-yl)-4-methylthiazole-5-sulfonamide] | < 100 nM | < 100 nM | – |
| Cc1nc(N2CC3(COC3)CN(c3ccc(-c4cc(F)cc(-c5cnn(C(F)F)c5)c4F)cc3)C2=O)sc1S(N)(=O)=O [Compound 342] | < 100 nM | < 100 nM | – |
| Cc1nc(N2CC(F)CN(c3ccc(-c4cc(F)ccc4F)cc3)C2=O)sc1S(N)(=O)=O (stereo not shown) [Compound 363] | < 100 nM | < 100 nM | – |
| Cc1nc(N2CC(C(C)(C)F)CN(c3ccc(-c4cc(F)ccc4F)cc3)C2=O)sc1S(N)(=O)=O (stereo not shown) [Compound 369] | < 100 nM | < 100 nM | – |
| Cc1nc(N2CCCN(c3ccc(-c4cc(F)ccc4F)cc3)C2=O)sc1S(=O)(=O)NCCCO [Compound 417] | < 100 nM | < 100 nM | – |
| Cc1nc(N2CC3(COC3)CN(c3ccc(-c4cc(F)cc(-c5cnn(C(F)F)c5)c4F)cc3)C2=O)sc1S(C)(=O)=O [Compound 434] | < 100 nM | < 100 nM | – |
| Cc1nc(N2CC3(COC3)CN(c3ccc(-c4cc(F)ccc4F)cc3)C2=O)sc1S(C)(=O)=O [Compound 436] | < 100 nM | < 100 nM | – |
| NS(=O)(=O)c1sc(N2CCCN(c3ccc(-c4cc(F)ccc4F)cc3)C2=O)nc1CF [Compound 441, 2-(3-(2′,5′-difluoro-[1,1′-biphenyl]-4-yl)-2-oxotetrahydropyrimidin-1(2H)-yl)-4-(fluoromethyl)thiazole-5-sulfonamide] | < 100 nM | < 100 nM | – |
| Cc1nc(N2CCN(c3ccc(-c4cc(F)ccc4F)cc3)C2=O)sc1S(N)(=O)=O [Example 104] | – | – | EC50 ([1]; 4 days): 1740 nM; EC50 [2]: > 2000 nM |
| Cc1nc(N2CCCN(c3ccc(-c4cc(F)cc5nsnc45)cc3)C2=O)sc1S(N)(=O)=O [Example 259] | – | – | EC50 ([1]; 4 days): 10 nM; EC50 [2]: 7 nM; fold more active than Example 314 (5-membered ring analog) ([2]; ratio of EC50 vs Example 314, assay not stated, HSV-2 values only): 4 fold |
| Cc1nc(N(C)C(=O)N(C)c2ccc(-c3cc(F)ccc3F)cc2)sc1S(N)(=O)=O [Reference Compound A, reference compound] | – | – | EC50 ([1]; 4 days): 844 nM; fold less active than Example 5 in the HSV-1 assay ([1]; ratio of EC50 vs Example 5): 44 fold; fold less active than acyclic amide analog Example 87 in the HSV-1 assay [1, 6]: 50 fold; EC50 [2]: 925 nM; fold less active than Example 5 in the HSV-2 assay ([2]; ratio of EC50 vs Example 5): 92 fold; fold less active than acyclic amide analog Example 87 in the HSV-2 assay [2, 6]: 54 fold |
| CC(C)[C@H](N)C(=O)OCCOCn1cnc2c(=O)[nH]c(N)nc21 [valacyclovir] | – | – | reduce transmission risk [3]: 46% |
